Measured values published in patent US20220193084A1, “INHIBITORS OF EZH2 AND METHODS OF USE THEREOF” (Epizyme, Inc., priority 2015, published 2022).

Assays:
relapsed refractory NHL = test: Phase 2 NHL trial: best response by molecular variant; format: in vivo, human
Method: Archive and cell-free tumor DNA collected from relapsed refractory NHL patients phase I and II trials, were tested in the NGS panel as described in Examples 1 and 2. The content of the panel included molecular variants occurring in NHL at ≥5% frequency. (Tables 15 and 17-19, FIGS. 19A-22C). […] Through correction of the background error by molecular bar coding the NHL specific plasma select panel was able to accurately detect mutations down to 0.1% allelic frequency (FIG. 13A and FIG. 13B). Translocations of ALK were detected in a cell-free DNA validation test set with samples from the phase I patients at a tumor purity of as low as 0.1% (FIG. 14). Sequencing of phase 1 NHL patients utilizing the 62 gene NHL NGS panel was completed for 10 archive tumor samples and 15 ctDNA samples (Table 15, FIG. 19A and FIG. 19B). In addition, microsatellite instability was monitored through the analysis of 5 distinct markers (BAT-25, BAT-26, MONO-27, NR-21 and NR-24), leading to one patient in the phase I trial being identified as microsatellite unstable based on the five tested markers (Table 15 and FIG. 19A and FIG. 19B, columns A16 and C16). Sequencing and an initial analysis of samples from patients in a phase 2 trial was completed with 58 archive tumor and 72 ctDNA baseline patient samples, wherein 48 of the archive tumor patients and 68 of the ctDNA patients were sequenced with reported response data.

[1] = human, in vivo
Method: (§1) Table 10 describes a Phase 1 clinical trial design (sponsor protocol no.: E7438-G000-001, ClinicalTrials.gov identifier: NCT01897571). The study population included subjects with relapsed or refractory solid tumors or B-cell lymphoma. Subjects received a 3+3 dose escalation in expansion cohorts receiving 800 mg BID and 1600 mg BID, respectively, or a cohort for ascertaining the effect of food on dosing at 400 mg BID. The primary endpoint was a determination of recommended phase II dose (RP2D)/maximum tolerated dose (MTD). Secondary endpoints included safety, pharmacokinetics (PK), pharmacodynamics (PD) and tumor response, assessed every 8 wks.

Oral bioavailability = conditions: in vivo
[2] = tested on: relapsed or refractory solid tumors or B-cell lymphoma; test: Phase 1 clinical trial (NCT01897571): tumor response; format: in vivo, human
Method: as §1

[3] = phase 2, archive tumor, 6 patients with MYD88 (273P) mutations
[4] = phase 2, archive tumor, 9 patients with EZH2 mutations
[5] = phase 2, archive tumor, 13 patients with STAT6 mutations
[6] = phase 2, ctDNA variant allele frequencies of 0.1%, 6 patients with MYD88 (273P) mutations
[7] = phase 2, ctDNA variant allele frequencies of 0.1%, 11 patients with EZH2 mutations
[8] = phase 2, ctDNA variant allele frequencies of 0.1%, 14 patients with STAT6 mutations
[9] = phase 2, ctDNA variant allele frequencies of 0.1%, 18 patients with MYC mutations
[10] = phase 2, ctDNA variant allele frequencies of 1%, 5 patients with MYD88 (273P) mutations
[11] = phase 2, ctDNA variant allele frequencies of 1%, 8 patients with EZH2 mutations
[12] = phase 2, ctDNA variant allele frequencies of 1%, 10 patients with STAT6 mutations

CCN(c1cc(-c2ccc(CN3CCOCC3)cc2)cc(C(=O)NCc2c(C)cc(C)[nH]c2=O)c1C)C1CCOCC1 [tazemetostat]
Response (relapsed refractory NHL; Sample ID 10012004, STAT6 419D > G, vaf 42%, DLBCL GCB EZH2 Wild-type): Progressive Disease | Response (relapsed refractory NHL; Sample ID 10032007, STAT6 419D > G, vaf 36%, FL EZH2 Wild-type): Partial Response | Response (relapsed refractory NHL; Sample ID 10042005, STAT6 419D > G, vaf 19%, FL EZH2 Wild-type): Partial Response | Response (relapsed refractory NHL; Sample ID 10052001, STAT6 419D > G, vaf 24%, FL EZH2 Mutant): Partial Response | Response (relapsed refractory NHL; Sample ID 10062002, STAT6 419D > G, vaf 29%, DLBCL GCB EZH2 Wild-type): Stable Disease | Response (relapsed refractory NHL; Sample ID 20012001, STAT6 286Q > R, vaf 24%, DLBCL GCB EZH2 Wild-type): Stable Disease | Response (relapsed refractory NHL; Sample ID 20012003, STAT6 417N > S, vaf 27%, DLBCL GCB EZH2 Wild-type): Stable Disease | Response (relapsed refractory NHL; Sample ID 20022001, STAT6 377E > K, vaf 33%, FL EZH2 Mutant): Partial Response | Response (relapsed refractory NHL; Sample ID 20022008, STAT6 371C > R, vaf 35%, FL EZH2 Wild-type): Progressive Disease | Response (relapsed refractory NHL; Sample ID 20042003, STAT6 419D > A, vaf 39%, DLBCL GCB EZH2 Mutant): Partial Response | Response (relapsed refractory NHL; Sample ID 20052004, STAT6 419D > A, vaf 30%, DLBCL GCB EZH2 Wild-type): Complete Response | Response (relapsed refractory NHL; Sample ID 30022001, STAT6 419D > H, vaf 42%, DLBCL GCB EZH2 Wild-type): Progressive Disease | Response (relapsed refractory NHL; Sample ID 50022001, STAT6 419D > Y, vaf 39%, DLBCL non-GCB): Stable Disease | response associated with MYC translocations (relapsed refractory NHL; phase 2, archive tumor, 2 MYC translocations): lack of response | best response CR, number of patients (relapsed refractory NHL; [3]): 3 | best response PD, number of patients (relapsed refractory NHL; [3]): 1 | best response PR, number of patients (relapsed refractory NHL; [3]): 1 | best response PD, number of patients (relapsed refractory NHL; phase 2, archive tumor, 7 patients with MYC mutations): 5 | best response PD, number of patients (relapsed refractory NHL; [4]): 2 | best response PR, number of patients (relapsed refractory NHL; [4]): 4 | best response SD, number of patients (relapsed refractory NHL; [4]): 3 | best response CR, number of patients (relapsed refractory NHL; [5]): 1 | best response PD, number of patients (relapsed refractory NHL; [5]): 3 | best response PR, number of patients (relapsed refractory NHL; [5]): 5 | best response SD, number of patients (relapsed refractory NHL; [5]): 4 | response associated with MYC translocations (relapsed refractory NHL; phase 2, ctDNA variant allele frequencies of 0.1%, 5 MYC translocations): lack of response | best response CR, number of patients (relapsed refractory NHL; [6]): 2 | best response PD, number of patients (relapsed refractory NHL; [6]): 2 | best response PR, number of patients (relapsed refractory NHL; [6]): 1 | best response SD, number of patients (relapsed refractory NHL; [6]): 1 | best response PD, number of patients (relapsed refractory NHL; [7]): 3 | best response PR, number of patients (relapsed refractory NHL; [7]): 5 | best response SD, number of patients (relapsed refractory NHL; [7]): 2 | best response PD, number of patients (relapsed refractory NHL; [8]): 3 | best response PR, number of patients (relapsed refractory NHL; [8]): 5 | best response SD, number of patients (relapsed refractory NHL; [8]): 6 | best response PD, number of patients (relapsed refractory NHL; [9]): 9 | best response PR, number of patients (relapsed refractory NHL; [9]): 2 | best response SD, number of patients (relapsed refractory NHL; [9]): 3 | response associated with MYC translocations (relapsed refractory NHL; phase 2, ctDNA variant allele frequencies of 1%, 5 MYC translocations): lack of response | best response PD, number of patients (relapsed refractory NHL; phase 2, ctDNA variant allele frequencies of 1%, 5 patients with MYC mutations): 3 | best response CR, number of patients (relapsed refractory NHL; [10]): 2 | best response PD, number of patients (relapsed refractory NHL; [10]): 2 | best response PR, number of patients (relapsed refractory NHL; [10]): 1 | best response PD, number of patients (relapsed refractory NHL; [11]): 3 | best response PR, number of patients (relapsed refractory NHL; [11]): 4 | best response SD, number of patients (relapsed refractory NHL; [11]): 1 | best response PD, number of patients (relapsed refractory NHL; [12]): 2 | best response PR, number of patients (relapsed refractory NHL; [12]): 4 | best response SD, number of patients (relapsed refractory NHL; [12]): 4 | Abdominal pain, All Events, All Grades [1]: 4 | Abdominal pain, All Events, Grade ≥3 [1]: 1 | Abdominal pain, All Treatment-Related, All Grades [1]: 1 | Abdominal pain, All Treatment-Related, Grade ≥3 [1]: 0 | Anemia, All Events, All Grades [1]: 5 | Anemia, All Events, Grade ≥3 [1]: 0 | Anemia, All Treatment-Related, All Grades [1]: 3 | Anemia, All Treatment-Related, Grade ≥3 [1]: 0 | Anxiety, All Events, All Grades [1]: 3 | Anxiety, All Events, Grade ≥3 [1]: 0 | Anxiety, All Treatment-Related, All Grades [1]: 1 | Anxiety, All Treatment-Related, Grade ≥3 [1]: 0 | Asthenia, All Events, All Grades [1]: 23 | Asthenia, All Events, Grade ≥3 [1]: 0 | Asthenia, All Treatment-Related, All Grades [1]: 13 | Asthenia, All Treatment-Related, Grade ≥3 [1]: 0 | Constipation, All Events, All Grades [1]: 7 | Constipation, All Events, Grade ≥3 [1]: 0 | Constipation, All Treatment-Related, All Grades [1]: 2 | Constipation, All Treatment-Related, Grade ≥3 [1]: 0 | Decreased appetite, All Events, All Grades [1]: 9 | Decreased appetite, All Events, Grade ≥3 [1]: 1 | Decreased appetite, All Treatment-Related, All Grades [1]: 4 | Decreased appetite, All Treatment-Related, Grade ≥3 [1]: 0 | Depression, All Events, All Grades [1]: 3 | Depression, All Events, Grade ≥3 [1]: 2 | Depression, All Treatment-Related, All Grades [1]: 1 | Depression, All Treatment-Related, Grade ≥3 [1]: 0 | Diarrhea, All Events, All Grades [1]: 6 | Diarrhea, All Events, Grade ≥3 [1]: 0 | Diarrhea, All Treatment-Related, All Grades [1]: 4 | Diarrhea, All Treatment-Related, Grade ≥3 [1]: 0 | Dry skin, All Events, All Grades [1]: 5 | Dry skin, All Events, Grade ≥3 [1]: 0 | Dry skin, All Treatment-Related, All Grades [1]: 4 | Dry skin, All Treatment-Related, Grade ≥3 [1]: 0 | Dysgeusia, All Events, All Grades [1]: 5 | Dysgeusia, All Events, Grade ≥3 [1]: 0 | Dysgeusia, All Treatment-Related, All Grades [1]: 5 | Dysgeusia, All Treatment-Related, Grade ≥3 [1]: 0 | Dyspnea, All Events, All Grades [1]: 5 | Dyspnea, All Events, Grade ≥3 [1]: 0 | Dyspnea, All Treatment-Related, All Grades [1]: 0 | Dyspnea, All Treatment-Related, Grade ≥3 [1]: 0 | Hepatocellular injury, All Events, All Grades [1]: 2 | Hepatocellular injury, All Events, Grade ≥3 [1]: 1 | Hepatocellular injury, All Treatment-Related, All Grades [1]: 1 | Hepatocellular injury, All Treatment-Related, Grade ≥3 [1]: 1 | Hypertension, All Events, All Grades [1]: 3 | Hypertension, All Events, Grade ≥3 [1]: 1 | Hypertension, All Treatment-Related, All Grades [1]: 2 | Hypertension, All Treatment-Related, Grade ≥3 [1]: 1 | Hypophosphatemia, All Events, All Grades [1]: 4 | Hypophosphatemia, All Events, Grade ≥3 [1]: 0 | Hypophosphatemia, All Treatment-Related, All Grades [1]: 1 | Hypophosphatemia, All Treatment-Related, Grade ≥3 [1]: 0 | Insomnia, All Events, All Grades [1]: 3 | Insomnia, All Events, Grade ≥3 [1]: 0 | Insomnia, All Treatment-Related, All Grades [1]: 0 | Insomnia, All Treatment-Related, Grade ≥3 [1]: 0 | Muscle spasms, All Events, All Grades [1]: 5 | Muscle spasms, All Events, Grade ≥3 [1]: 0 | Muscle spasms, All Treatment-Related, All Grades [1]: 3 | Muscle spasms, All Treatment-Related, Grade ≥3 [1]: 0 | Nausea, All Events, All Grades [1]: 8 | Nausea, All Events, Grade ≥3 [1]: 0 | Nausea, All Treatment-Related, All Grades [1]: 8 | Nausea, All Treatment-Related, Grade ≥3 [1]: 0 | Neutropenia, All Events, All Grades [1]: 3 | Neutropenia, All Events, Grade ≥3 [1]: 1 | Neutropenia, All Treatment-Related, All Grades [1]: 3 | Neutropenia, All Treatment-Related, Grade ≥3 [1]: 1 | Night sweats, All Events, All Grades [1]: 3 | Night sweats, All Events, Grade ≥3 [1]: 0 | Night sweats, All Treatment-Related, All Grades [1]: 3 | Night sweats, All Treatment-Related, Grade ≥3 [1]: 0 | Peripheral edema, All Events, All Grades [1]: 3 | Peripheral edema, All Events, Grade ≥3 [1]: 0 | Peripheral edema, All Treatment-Related, All Grades [1]: 2 | Peripheral edema, All Treatment-Related, Grade ≥3 [1]: 0 | Safety profile as monotherapy [1]: acceptable | Thrombocytopenia, All Events, All Grades [1]: 8 | Thrombocytopenia, All Events, Grade ≥3 [1]: 2 | Thrombocytopenia, All Treatment-Related, All Grades [1]: 7 | Thrombocytopenia, All Treatment-Related, Grade ≥3 [1]: 1 | Vomiting, All Events, All Grades [1]: 6 | Vomiting, All Events, Grade ≥3 [1]: 0 | Vomiting, All Treatment-Related, All Grades [1]: 5 | Vomiting, All Treatment-Related, Grade ≥3 [1]: 0 | oral bioavailability (Oral bioavailability): orally bioavailable | clinical responses in phase 1 clinical trial ([2]; both EZH2 mutant and wild type patients): demonstrated clinical responses | clinical activity as a monotherapy ([2]; relapsed or refractory DLBCL (GCB and non-GCB), FL and MZL): demonstrates clinical activity
